Literature values, collected in patent US9541834B2, “Ionic thermal acid generators for low temperature applications” (Rohm and Haas Electronic Materials LLC, priority 2012, dated 2017).

Conditions: pKa of conjugate acid (BH)+ of the base of the TAG, aqueous solution, about room temperature

Molecule	pKa (base)
3-Fluoropyridinium perfluorobutanesulfonate [3-Fluoropyridinium PFBuS]	2.8
N.O=S(=O)(O)C(F)(F)C(F)(F)C(F)(F)C(F)(F)F [Ammonium PFBuS, Ammonium perfluorobutanesulfonate]	9.25
Pyridazinium perfluorobutanesulfonate [Pyridazinium PFBuS]	3.1
